Source: PubChem BioAssay (NCI)
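These data come from cells grown in 96-well plates and exposed to compound for 48 hours at five concentrations. GI50: concentration for 50% inhibition of growth. At the TGI there is no net growth.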

How the values were obtained:
Test in all cases: NCI tumour cell line growth inhibition, 48 h
786-0 renal = tested on: 786-0 renal
A498 renal = tested on: A498 renal
A549 NSCLC = tested on: A549 NSCLC
ACHN renal = tested on: ACHN renal
BT-549 breast = tested on: BT-549 breast
CAKI-1 renal = tested on: CAKI-1 renal
CCRF-CEM leukemia = tested on: CCRF-CEM leukemia
COLO 205 colon = tested on: COLO 205 colon
DU-145 prostate = tested on: DU-145 prostate
HCC-2998 colon = tested on: HCC-2998 colon
HCT-116 colon = tested on: HCT-116 colon
HCT-15 colon = tested on: HCT-15 colon
HL-60(TB) leukemia = tested on: HL-60(TB) leukemia
HOP-62 NSCLC = tested on: HOP-62 NSCLC
HOP-92 NSCLC = tested on: HOP-92 NSCLC
HS 578T breast = tested on: HS 578T breast
HT29 colon = tested on: HT29 colon
IGROV1 ovarian = tested on: IGROV1 ovarian
K-562 leukemia = tested on: K-562 leukemia
KM12 colon = tested on: KM12 colon
LOX IMVI melanoma = tested on: LOX IMVI melanoma
M14 melanoma = tested on: M14 melanoma
MALME-3M melanoma = tested on: MALME-3M melanoma
MCF7 breast = tested on: MCF7 breast
MDA-MB-231 breast = tested on: MDA-MB-231 breast
MDA-MB-435 = tested on: MDA-MB-435
MOLT-4 leukemia = tested on: MOLT-4 leukemia
NCI-H226 lung = tested on: NCI-H226 lung
NCI-H23 lung = tested on: NCI-H23 lung
NCI-H460 lung = tested on: NCI-H460 lung
NCI-H522 lung = tested on: NCI-H522 lung
NCI/ADR-RES ovarian = tested on: NCI/ADR-RES ovarian
OVCAR-3 ovarian = tested on: OVCAR-3 ovarian
OVCAR-4 ovarian = tested on: OVCAR-4 ovarian
OVCAR-5 ovarian = tested on: OVCAR-5 ovarian
OVCAR-8 ovarian = tested on: OVCAR-8 ovarian
PC-3 prostate = tested on: PC-3 prostate
RPMI-8226 leukemia = tested on: RPMI-8226 leukemia
SF-268 CNS = tested on: SF-268 CNS
SF-295 CNS = tested on: SF-295 CNS
SF-539 CNS = tested on: SF-539 CNS
SK-MEL-2 melanoma = tested on: SK-MEL-2 melanoma
SK-MEL-28 melanoma = tested on: SK-MEL-28 melanoma
SK-MEL-5 melanoma = tested on: SK-MEL-5 melanoma
SK-OV-3 ovarian = tested on: SK-OV-3 ovarian
SN12C renal = tested on: SN12C renal
SNB-19 CNS = tested on: SNB-19 CNS
SNB-75 CNS = tested on: SNB-75 CNS
SR leukemia = tested on: SR leukemia
SW-620 colon = tested on: SW-620 colon
T-47D breast = tested on: T-47D breast
TK-10 renal = tested on: TK-10 renal
U251 CNS = tested on: U251 CNS
UACC-257 melanoma = tested on: UACC-257 melanoma
UACC-62 melanoma = tested on: UACC-62 melanoma
UO-31 renal = tested on: UO-31 renal

Question: Which results are given for Cc1cc(Nc2cccc(F)c2)nc(NCc2ccccc2)n1?
Answer: GI50 (786-0 renal): 6.62 µM; TGI (786-0 renal): 22.1 µM; GI50 (A498 renal): 2.75 µM; TGI (A498 renal): 10.7 µM; GI50 (A549 NSCLC): 6.44 µM; TGI (A549 NSCLC): 22.8 µM; GI50 (ACHN renal): 7.76 µM; TGI (ACHN renal): 26.1 µM; GI50 (BT-549 breast): 7.45 µM; TGI (BT-549 breast): 23.2 µM; GI50 (CAKI-1 renal): 3.94 µM; TGI (CAKI-1 renal): 17.8 µM; GI50 (CCRF-CEM leukemia): 4.75 µM; TGI (CCRF-CEM leukemia): 22.1 µM; GI50 (COLO 205 colon): 1.73 µM; TGI (COLO 205 colon): 3.31 µM; GI50 (DU-145 prostate): 11.3 µM; TGI (DU-145 prostate): 23.9 µM; GI50 (HCC-2998 colon): 2 µM; TGI (HCC-2998 colon): 4.19 µM; GI50 (HCT-116 colon): 3.34 µM; TGI (HCT-116 colon): 18.2 µM; GI50 (HCT-15 colon): 4.98 µM; TGI (HCT-15 colon): 24.6 µM; GI50 (HL-60(TB) leukemia): 3.91 µM; TGI (HL-60(TB) leukemia): 17.2 µM; GI50 (HOP-62 NSCLC): 10.2 µM; TGI (HOP-62 NSCLC): 23.4 µM; GI50 (HOP-92 NSCLC): 1.81 µM; TGI (HOP-92 NSCLC): 11 µM; GI50 (HS 578T breast): 7.26 µM; TGI (HS 578T breast): 32.7 µM; GI50 (HT29 colon): 3.7 µM; TGI (HT29 colon): 13.4 µM; GI50 (IGROV1 ovarian): 5.44 µM; TGI (IGROV1 ovarian): 24.6 µM; GI50 (K-562 leukemia): 2.89 µM; TGI (K-562 leukemia): 12.9 µM; GI50 (KM12 colon): 5.46 µM; TGI (KM12 colon): 19.7 µM; GI50 (LOX IMVI melanoma): 7.12 µM; TGI (LOX IMVI melanoma): 28.7 µM; GI50 (M14 melanoma): 13.3 µM; TGI (M14 melanoma): 30.8 µM; GI50 (MALME-3M melanoma): 3.8 µM; TGI (MALME-3M melanoma): 17.7 µM; GI50 (MCF7 breast): 3.14 µM; TGI (MCF7 breast): 15.7 µM; GI50 (MDA-MB-231 breast): 3.28 µM; TGI (MDA-MB-231 breast): 14.1 µM; GI50 (MDA-MB-435): 5.72 µM; TGI (MDA-MB-435): 20 µM; GI50 (MOLT-4 leukemia): 4.89 µM; TGI (MOLT-4 leukemia): 19.8 µM; GI50 (NCI-H226 lung): 11.8 µM; TGI (NCI-H226 lung): 35.2 µM; GI50 (NCI-H23 lung): 4.96 µM; TGI (NCI-H23 lung): 21.9 µM; GI50 (NCI-H460 lung): 3.84 µM; TGI (NCI-H460 lung): 15.8 µM; GI50 (NCI-H522 lung): 8.45 µM; TGI (NCI-H522 lung): 24.7 µM; GI50 (NCI/ADR-RES ovarian): 6.38 µM; TGI (NCI/ADR-RES ovarian): 38 µM; GI50 (OVCAR-3 ovarian): 8.65 µM; TGI (OVCAR-3 ovarian): 21.7 µM; GI50 (OVCAR-4 ovarian): 4.42 µM; TGI (OVCAR-4 ovarian): 37.6 µM; GI50 (OVCAR-5 ovarian): 12.4 µM; TGI (OVCAR-5 ovarian): 29.9 µM; GI50 (OVCAR-8 ovarian): 3.9 µM; TGI (OVCAR-8 ovarian): 18.2 µM; GI50 (PC-3 prostate): 4.34 µM; TGI (PC-3 prostate): 18.7 µM; GI50 (RPMI-8226 leukemia): 2.03 µM; TGI (RPMI-8226 leukemia): 7.97 µM; GI50 (SF-268 CNS): 11.3 µM; TGI (SF-268 CNS): 28.6 µM; GI50 (SF-295 CNS): 6.57 µM; TGI (SF-295 CNS): 27.1 µM; GI50 (SF-539 CNS): 10.8 µM; TGI (SF-539 CNS): 24.7 µM; GI50 (SK-MEL-2 melanoma): 11 µM; TGI (SK-MEL-2 melanoma): 25.4 µM; GI50 (SK-MEL-28 melanoma): 7.21 µM; TGI (SK-MEL-28 melanoma): 20.6 µM; GI50 (SK-MEL-5 melanoma): 2.73 µM; TGI (SK-MEL-5 melanoma): 10.1 µM; GI50 (SK-OV-3 ovarian): 10.6 µM; TGI (SK-OV-3 ovarian): 22.5 µM; GI50 (SN12C renal): 6.12 µM; TGI (SN12C renal): 23 µM; GI50 (SNB-19 CNS): 11.1 µM; TGI (SNB-19 CNS): 26.8 µM; GI50 (SNB-75 CNS): 0.799 µM; TGI (SNB-75 CNS): 13 µM; GI50 (SR leukemia): 3.28 µM; TGI (SR leukemia): 10.1 µM; GI50 (SW-620 colon): 6.62 µM; TGI (SW-620 colon): 23.7 µM; GI50 (T-47D breast): 3.71 µM; TGI (T-47D breast): 18.5 µM; GI50 (TK-10 renal): 8.29 µM; TGI (TK-10 renal): 21.4 µM; GI50 (U251 CNS): 3.32 µM; TGI (U251 CNS): 8.34 µM; GI50 (UACC-257 melanoma): 3.95 µM; TGI (UACC-257 melanoma): 15.5 µM; GI50 (UACC-62 melanoma): 5.61 µM; TGI (UACC-62 melanoma): 20.2 µM; GI50 (UO-31 renal): 3.26 µM; TGI (UO-31 renal): 19.3 µM
